Experimental data from ChEMBL document CHEMBL1201862, “PubChem BioAssay data set” (2004).
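Growth conditions: 96-well plates. Treatment: test compound, 48 hours, 5 concentrations. Analysis: linear interpolation between bracketing concentrations; unreached endpoints set to highest concentration. GI50: concentration for 50% inhibition of growth.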 Calls of active or inactive are those of the source. Rule as the data show it: active = GI50 up to about 1.1 µM and inactive = higher.

Experiments:
Experiment in all cases: NCI anticancer screen, dose series, 48 h
MDA-MB-435 = test system: MDA-MB-435
T47D = test system: T47D
SNB-19 = test system: SNB-19
SW-620 = test system: SW-620
SF-268 = test system: SF-268
NCI/ADR-RES = test system: NCI/ADR-RES
MDA-MB-231 = test system: MDA-MB-231
IGROV-1 = test system: IGROV-1
NCI-H226 = test system: NCI-H226
NCI-H460 = test system: NCI-H460
BT-549 = test system: BT-549
HOP-62 = test system: HOP-62
EKVX = test system: EKVX
OVCAR-3 = test system: OVCAR-3
UACC-62 = test system: UACC-62
SN12C = test system: SN12C
HCT-15 = test system: HCT-15
SK-MEL-28 = test system: SK-MEL-28
K562 = test system: K562
M14 = test system: M14
NCI-H23 = test system: NCI-H23
CCRF-CEM = test system: CCRF-CEM
MDA-N = test system: MDA-N
SNB-75 = test system: SNB-75
Hs-578T = test system: Hs-578T
CAKI-1 = test system: CAKI-1
RXF 393 = test system: RXF 393
OVCAR-8 = test system: OVCAR-8
MCF7 = test system: MCF7
MOLT-4 = test system: MOLT-4
UO-31 = test system: UO-31
HCC 2998 = test system: HCC 2998
786-0 = test system: 786-0
A549 = test system: A549
ACHN = test system: ACHN
Malme-3M = test system: Malme-3M
TK-10 = test system: TK-10
NCI-H522 = test system: NCI-H522
KM12 = test system: KM12
DU-145 = test system: DU-145
HOP-92 = test system: HOP-92
SK-MEL-5 = test system: SK-MEL-5
UACC-257 = test system: UACC-257
PC-3 = test system: PC-3
SF-295 = test system: SF-295
OVCAR-4 = test system: OVCAR-4
A498 = test system: A498
HT-29 = test system: HT-29
SR = test system: SR
SF-539 = test system: SF-539
COLO 205 = test system: COLO 205
SK-OV-3 = test system: SK-OV-3
U-251 = test system: U-251

Measured: GI50

CCn1c(=O)c2c3cc(O)ccc3oc2c2ccc(O)cc21
inactive: MDA-MB-435 27 µM | T47D 12.6 µM | SNB-19 21.9 µM | SW-620 31.3 µM | SF-268 27.5 µM | NCI/ADR-RES 37.8 µM | MDA-MB-231 25.2 µM | IGROV-1 42.6 µM | NCI-H226 37.1 µM | NCI-H460 26.9 µM | BT-549 17.4 µM | HOP-62 28.8 µM | EKVX 24.7 µM | OVCAR-3 29.9 µM | UACC-62 20.3 µM | SN12C 29.2 µM | SK-MEL-28 35.8 µM | K562 25.9 µM | M14 31.2 µM | NCI-H23 41.3 µM | CCRF-CEM 21.1 µM | MDA-N 30 µM | SNB-75 22.9 µM | Hs-578T 5.46 µM | CAKI-1 34.3 µM | RXF 393 30.1 µM | OVCAR-8 36.7 µM | MCF7 28.6 µM | MOLT-4 16.1 µM | UO-31 19.3 µM | HCC 2998 19.3 µM | 786-0 57.7 µM | A549 24.4 µM | ACHN 21.3 µM | Malme-3M 32.7 µM | TK-10 24.8 µM | NCI-H522 19.3 µM | KM12 31.8 µM | DU-145 29.4 µM | HOP-92 26.2 µM | SK-MEL-5 17 µM | UACC-257 76.6 µM | PC-3 31.1 µM | SF-295 25 µM | OVCAR-4 34.8 µM | A498 18.9 µM | HT-29 25.2 µM | SR 18.2 µM | SF-539 16.7 µM | COLO 205 17.5 µM | SK-OV-3 43.6 µM | U-251 22.9 µM
31 µM: HCT-15
